In series [1] the target is T1, Hsp90α (Homo sapiens, UniProt P07900).
T1 construct: purchased BPS Bioscience 50294
In words: Hsp90α binding assay (fluorescence polarization, FITC-labeled geldanamycin). To be noted: read-out: Hsp90 binding EC50. The procedure: An Hsp90^α fluorescence assay kit from BPS Bioscience (Cat #50294) containing Hsp90 recombinant enzyme, FITC-labeled geldanamycin, assay buffer and a low binding 384-well plate was used to assay Hsp90^α binding. Dithiothreitol (DTT)(Cat #D0643) and bovine serum albumin (BSA)(Cat #A2153) were obtained from Sigma-Aldrich. Fluorescence polarization was measured using a PHERAstar microplate reader from BMG LABTECH GmbH, Ortenherg, Germany.
The compounds were diluted to 1 mM in DMSO and loaded into a compound dilution plate to make 3-fold dilutions yielding a total of 8 concentrations. 1 µL of compound was transferred from the dilution plate to the low binding assay plate provided in the assay kit. 5 mL of Hsp90^□ binding solution was prepared having a final concentration of 7 ng/µL Hsp90^□, 5 nM FITC-labeled geldanamycin, 2 mM DTT and 0.1 mg/mL BSA. 49 μL of binding solution was added to each microplate well, incubated at room temperature for 1 hour, then read using the PHERAstar microplate reader. The high control sample contained no compound plus Hsp90^α; the low control sample contained no compound and no Hsp90^α. […] The IC50 was calculated using GraphPad Prism 4 software.
(Fluorescence polarisation rises when a labelled molecule tumbles more slowly, as on binding a larger partner.)

Series [2] has as its system HER2. The series is described as follows: Her2 degradation assay with BT-474 cell line (Example 12, FACS). Format: cell-based, human. To be noted: BT-474 cells. An excerpt: HER2 has emerged as a key target for anticancer drugs due to its intrinsic involvement in the phosphatidylinositol-3-kinase-Akt/proteinkinase B (PI3K-Akt) and the mitogen-activated protein kinase (MAPK) pathways, both of which suppress apoptosis and promote tumor cell survival, gene transcription, angiogenesis, cellular proliferation, migration, mitosis, and differentiation. The degradation of HER2 is a measure of efficacy of anticancer therapeutics that target Hsp90. Accordingly, the SDC-TRAP molecules of the invention that comprise a binding moiety that binds Hsp90 were tested in the following HER2 degradation assay.
BT-474 cells (human breast cancer cell line ATCC HTB-20) were obtained from ATCC and seeded into 12-well tissue culture plates at 0.2×10^6/1.8 mL/well. […] Each test compound was titrated in 4-fold dilutions from 5 μM to 78 nM with DMSO and 200 μL of the titration was added to each well of the cell plate. The DMSO final concentration was 0.2%. Cells were incubated overnight at 37° C. in 5% CO2.
Media was decanted from the plate, cells were washed 1× in PBS. 400 μL trypsin (EDTA) per well was added and the cells were incubated for 2 to 3 minutes. […] The cytometer readout was normalized and the potency of each compound is evaluated with IC50 calculated with XL Fit software.

Series [3] deals with MCF-7 breast cancer cells. The series is described as follows: Mouse xenograft efficacy in an MCF-7 breast cancer model. The series is classed as in vivo. Particulars: 150 or 100 mg/kg/1×wk IV, versus irinotecan alone or ganetespib + irinotecan. The procedure:
MCF-7 breast cancer cells were purchased from ATCC. […] Fetal bovine serum was then be added to the medium. The final concentration of fetal bovine serum was 10%. Cells were cultured at 37° C. and 5% CO2.
Mice that were not put on treatment were euthanized. Animals were sourced through CRL (Wilmington, Mass.).

A short description of series [4]: Tissue distribution of ganetespib in female CD-1 nu/nu mice bearing RERF human NSCLC xenografts. Format: in vivo, mouse. To be noted: 5 min time point. The procedure: Tissue Distribution of ganetespib in Female CD-1 nu/nu Mice Bearing RERF Human NSCLC Xenografts
To confirm the distribution of ganetespib in blood, livers, kidneys, brains, hearts, lungs and tumors after IV administration of ganetespib to female CD-1 nu/nu mice bearing RERF human NSCLC xenografts, and to examine metabolic profiles of ganetespib in plasma, red blood cells, and above tissues.
Animals: female CD-1 nu/nu mice bearing RERF human NSCLC xenografts (N=3/group)
Dosage: 50 mg/kg Dose level: 10 mL/kg Formulation: 10% DMSO, 18% Cremophor RH40, 3.6% dextrose solution (DRD) Bleeding time points: 5 min, 6, 24 hr Collected tissues: blood (plasma and red blood cells (RBC)), liver, kidneys, brain, heart, lung, tumor
Protein precipitation: 50 μL of 10 times diluted plasma or RBC+150 μL ACN (10 mM NH4OAc), vortexed and centrifuged at 10000 rpm for 8 min; 150 μL supernatant+150 μL water (10 mM NH4OAc)
Protein precipitation: 100 μL homogenized tissue (1:3 tissue:PBS buffer)+100 μL ACN (10 mM NH4OAc), vortexed and centrifuged at 10000 rpm for 8 min

The term EC50 denotes the midpoint of the concentration-response curve. Take `CCc1c2c(nc3ccc(OC(=O)N4CCN(Cc5ccc(-n6c(O)nnc6-c6cc(C(C)C)c(O)cc6O)cc5)CC4)cc13)-c1cc3c(c(=O)n1C2)COC(=O)C3(O)CC` (stereo not drawn) [SDC-TRAP-0046, 4,11-diethyl-4-hydroxy-3,14-dioxo-3,4,12,14-tetrahydro-1H-pyrano[3′,4′:6,7]indolizino[1,2-b]quinolin-9-yl 4-(4-(3-(2,4-dihydroxy-5-isopropylphenyl)-5-hydroxy-4H-1,2,4-triazol-4-yl)benzyl)piperazine-1-carboxylate]: the EC50 in series [1] came out at 102 nM.

As to `CCNC(=O)c1nnc(-c2cc(C(C)C)c(O)cc2O)n1-c1ccc(CN2CCC(C(=O)N3CCC(n4cc(-c5cnc(N)c(O[C@H](C)c6c(Cl)ccc(F)c6Cl)c5)cn4)CC3)CC2)cc1` [SDC-TRAP-0134, (R)-4-(4-((4-(4-(4-(6-amino-5-(1-(2,6-dichloro-3-fluorophenyl)ethoxy)pyridin-3-yl)-1H-pyrazol-1-yl)piperidine-1-carbonyl)piperidin-1-yl)methyl)phenyl)-5-(2,4-dihydroxy-5-isopropylphenyl)-N-ethyl-4H-1,2,4-triazole-3-carboxamide], the EC50 in series [1] was determined as 95.4 nM.

For `CC(C)c1cc(-c2nnc(O)n2-c2ccc(CC3CCN(CC(=O)Nc4cccc5c4CN(C4CCC(=O)NC4=O)C5=O)CC3)cc2)c(O)cc1O` (stereo not drawn) [SDC-TRAP-0116, 2-(4-(4-(3-(2,4-dihydroxy-5-isopropylphenyl)-5-hydroxy-4H-1,2,4-triazol-4-yl)benzyl)piperidin-1-yl)-N-(2-(2,6-dioxopiperidin-3-yl)-1-oxoisoindolin-4-yl)acetamide], in series [1], the EC50 turned out to be 159 nM.

Regarding `COc1cc(O)c(-c2nnc(C(=O)NC(C)C)n2-c2ccc(CN3CCC(C(=O)Nc4cccc5c4CN(C4CCC(=O)NC4=O)C5=O)CC3)cc2)cc1C(C)C` (stereo not drawn) [SDC-TRAP-0115, N-(2-(2,6-dioxopiperidin-3-yl)-1-oxoisoindolin-4-yl)-1-(4-(3-(2-hydroxy-5-isopropyl-4-methoxyphenyl)-5-(isopropylcarbamoyl)-4H-1,2,4-triazol-4-yl)benzyl)piperidine-4-carboxamide], the EC50 in series [1] was 203 nM.

With `CCc1c2c(nc3ccc(OC(=O)N4CCC[C@H]4C(=O)N4CCN(c5ccc(-n6c(O)nnc6-c6cc(C(C)C)c(O)cc6O)cc5)CC4)cc13)-c1cc3c(c(=O)n1C2)COC(=O)[C@]3(O)CC` [SDC-TRAP-0204, (S)—(S)-4,11-diethyl-4-hydroxy-3,14-dioxo-3,4,12,14-tetrahydro-1H-pyrano[3′,4′:6,7]indolizino[1,2-b]quinolin-9-yl 2-(4-(4-(3-(2,4-dihydroxy-5-isopropylphenyl)-5-hydroxy-4H-1,2,4-triazol-4-yl)phenyl)piperazine-1-carbonyl)pyrrolidine-1-carboxylate], the EC50 in series [1] is 82.6 nM.

For `CCNC(=O)c1nnc(-c2cc(C(C)C)c(O)cc2O)n1-c1ccc(CN2CCC(C(=O)N3CCC(C(=O)N[C@H]4C[C@H](O[C@H]5C[C@](O)(C(=O)CO)Cc6c(O)c7c(c(O)c65)C(=O)c5c(OC)cccc5C7=O)O[C@@H](C)[C@H]4O)CC3)CC2)cc1` [SDC-TRAP-0198, 1-(1-(4-(3-(2,4-dihydroxy-5-isopropylphenyl)-5-(ethylcarbamoyl)-4H-1,2,4-triazol-4-yl)benzyl)piperidine-4-carbonyl)-N-((2S,3S,4S,6R)-3-hydroxy-2-methyl-6-(((1S,3S)-3,5,12-trihydroxy-3-(2-hydroxyacetyl)-10-methoxy-6,11-dioxo-1,2,3,4,6,11-hexahydrotetracen-1-yl)oxy)tetrahydro-2H-pyran-4-yl)piperidine-4-carboxamide], the EC50 in series [1] is 93.3 nM.

As for `CCNC(=O)c1nnc(-c2cc(C(C)C)c(O)cc2O)n1-c1ccc(OC2CCN(C(=O)[C@@H]3CCCN3C(=O)Oc3ccc4nc5c(c(CC)c4c3)Cn3c-5cc4c(c3=O)COC(=O)[C@]4(O)CC)CC2)cc1` [SDC-TRAP-0209], in series [1], the EC50 came to 54.6 nM.

As to `CC(C)c1cc(-c2nnc(O)n2-c2ccc(CC(=O)N(C)CCOC(=O)Nc3cccc4c3CN(C3CCC(=O)NC3=O)C4=O)cc2)c(O)cc1O` (stereo not drawn) [SDC-TRAP-0127, 2-(2-(4-(3-(2,4-dihydroxy-5-isopropylphenyl)-5-hydroxy-4H-1,2,4-triazol-4-yl)phenyl)-N-methylacetamido)ethyl(2-(2,6-dioxopiperidin-3-yl)-1-oxoisoindolin-4-yl)carbamate], the EC50 in series [1] worked out at 102 nM.

Usually IC50 stands for the concentration that gives 50% inhibition. For `CC(C)c1cc(-c2nnc(O)n2-c2ccc(CN3CCN(C(=O)CCn4cc(F)c(=O)[nH]c4=O)CC3)cc2)c(O)cc1O` [SDC-TRAP-0049], the half-inhibitory concentration (IC50) in series [2] is greater than 5 µM.

`CCc1c2c(nc3ccc(O)cc13)-c1cc3c(c(=O)n1C2)COC(=O)[C@@]3(CC)OC(=O)N1CCC(CCn2ccc3cc(-n4c(O)nnc4-c4cc(C(C)C)c(O)cc4O)ccc32)CC1` [SDC-TRAP-0064, (S)-4,11-diethyl-9-hydroxy-3,14-dioxo-3,4,12,14-tetrahydro-1H-pyrano[3′,4′:6,7]indolizino[1,2-b]quinolin-4-yl 4-(2-(5-(3-(2,4-dihydroxy-5-isopropylphenyl)-5-hydroxy-4H-1,2,4-triazol-4-yl)-1H-indol-1-yl)ethyl)piperidine-1-carboxylate]: in series [1], the EC50 is 122 nM.

For the compound `CCc1c2c(nc3ccc(OC(=O)N4CCC(CCn5ccc6cc(-n7c(O)nnc7-c7cc(C(C)C)c(O)cc7O)ccc65)CC4)cc13)-c1cc3c(c(=O)n1C2)COC(=O)[C@]3(O)CC` [SDC-TRAP-0063, 4,11-diethyl-4-hydroxy-3,14-dioxo-3,4,12,14-tetrahydro-1H-pyrano[3′,4′:6,7]indolizino[1,2-b]quinolin-9-yl 4-(2-(5-(3-(2,4-dihydroxy-5-isopropylphenyl)-5-hydroxy-4H-1,2,4-triazol-4-yl)-1H-indol-1-yl)ethyl)piperidine-1-carboxylate], the “Tumor growth suppression (tumor volume)” value in series [3] is “greater tumor growth suppression than effector moiety irinotecan alone or unconjugated binding moiety ganetespib and effector moiety irinotecan administered together”. In addition, in series [1], the 50% effective concentration (EC50) came out at 157 nM.

Turning to `CCc1c2c(nc3ccc(OC(=O)N4CCC[C@H]4C(=O)N4CCC(CCn5ccc6cc(-n7c(O)nnc7-c7cc(C(C)C)c(O)cc7O)ccc65)CC4)cc13)-c1cc3c(c(=O)n1C2)COC(=O)[C@]3(O)CC` [SDC-TRAP-0210], in series [1], the EC50 turned out to be 91 nM.

`CC(C)c1cc(-c2n[nH]c(=O)n2-c2ccc3c(ccn3C)c2)c(O)cc1O` [ganetespib]: the “Mean concentration in plasma relative to RBC (times higher)” value in series [4] is listed as “about 10”.

In the case of `CCc1c2c(nc3ccc(OC(=O)N4CCN(c5ccc(-n6c(O)nnc6-c6cc(C(C)C)c(O)cc6O)cc5)CC4)cc13)-c1cc3c(c(=O)n1C2)COC(=O)C3(O)CC` (stereo not drawn) [SDC-TRAP-0045, 4,11-diethyl-4-hydroxy-3,14-dioxo-3,4,12,14-tetrahydro-1H-pyrano[3′,4′:6,7]indolizino[1,2-b]quinolin-9-yl 4-(4-(3-(2,4-dihydroxy-5-isopropylphenyl)-5-hydroxy-4H-1,2,4-triazol-4-yl)phenyl)piperazine-1-carboxylate], in series [1], the EC50 turned out to be 96.6 nM.

These data come from US20140079636A1, “TARGETED THERAPEUTICS” (priority 2012, published 2014).
